Converted amounts (≈) assume the structure as drawn. Like-named read-outs stand apart in the source and are kept apart here. Marks after values point to notes of the source that are not given here. Where a SMILES comes first, the peptide text is derived from it. Bridges are numbered along the chain shown (N, C = ends). Where no end group is shown, it is not given here. [ ]: non-standard residue; d: D form. The star is where a group is joined. ξ: configuration not given here. dAoc(2) = CCCCCC[C@@H](N)C(=O)O; ξLac(3-iPr) = CC(C)CC(O)C(=O)O; Decanoyl = CCCCCCCCCC(=O)*; Nonanoyl = CCCCCCCCC(=O)*; Heptanoyl = CCCCCCC(=O)*; Nle = CCCC[C@H](N)C(=O)O; Octanoyl = CCCCCCCC(=O)*; Dab = NCC[C@H](N)C(=O)O; Hexanoyl = CCCCCC(=O)*
Tests used:
[1] = system: Escherichia coli ATCC 8739; conditions: E coli ATCC8739 (non-resistant); comparative examples, extracted from Rabanal et al. 2015; cited from earlier work
[2] = system: Pseudomonas aeruginosa ATCC 9027; conditions: P. aeruginosa ATTC9027 (non-resistant); comparative examples, extracted from Rabanal et al. 2015; cited from earlier work
[3] = system: Staphylococcus aureus ATTC6538; conditions: S. aureus ATTC6538; comparative examples, extracted from Rabanal et al. 2015; cited from earlier work
Escherichia coli MAC21a = assay type: cell-based
Description: (§1) E. coli strains: NDM-1 (multidrug resistant strain) and VAL10, VAL5 and MAC21 strains show intermediante resistance to quinolones

Escherichia coli NDM-1 = assay type: cell-based
Description: as §1

Escherichia coli VAL 10 = assay type: cell-based
Description: as §1

Escherichia coli VAL 5 = assay type: cell-based
Description: as §1

[4] = system: Escherichia coli ATCC 8739; assay type: cell-based
Description: (§2) Bacterial strains used for the antibacterial activity tests were obtained from the American Type Culture Collection (ATCC, Rockville, MD, USA): • Non resistant Gram-negative bacterias: • Escherichia coli ATCC 8739 • Pseudomonas aeruginosa ATCC 9027 • Non resistant Gram-positive bacteria: • Staphylococcus aureus ATTC6538

[5] = system: Pseudomonas aeruginosa ATCC 9027; assay type: cell-based
Description: as §2

[6] = system: Pseudomonas aeruginosa 36a; assay type: cell-based
Protocol: (§7) For resistant and multi-drug resistant bacteria Gram negative bacteria, the test was essentially the same with slight changes in the amounts used: samples of a final volume of 100µL were prepared as follows: aliquots (50 µL) of a suspension containing bacteria at a concentration of 1.5x10^6 colony-forming units/mL in culture medium (MH, Muller Hinton Broth, Difco, USA), adjusted at pH 7.4, were added to 100µL of solution containing the peptide prepared from a stock solution of 1024 mg/L peptide in water in serial 2-fold dilutions in MH broth adjusted to pH 7.4

[7] = system: Pseudomonas aeruginosa 38a; assay type: cell-based
Protocol: as §7

[8] = system: Pseudomonas aeruginosa 21 R; conditions: P. aeruginosa 21R
Protocol: (§3) The antibacterial activity of the lipopeptides was measured in sterile 96-well plates (Corning Costar 3598 microtiter plates). Samples of a final volume of 200µL were prepared as follows: aliquots (100 µL) of a suspension containing bacteria at a concentration of 10^5 colony-forming units/mL in culture medium (MH, Muller Hinton Broth, Difco, USA), adjusted at pH 7.4, were added to 100µL of solution containing the peptide prepared from a stock solution of 1 mg/mL peptide in water in serial 2-fold dilutions in MH broth adjusted to pH 7.4 (Jorgensen and Turnide, 2003). Inhibition of bacterial growth was determined by measuring the absorbance at 492 nm with a Absorbance Microplate reader ELx 800 (Bio-tek Instruments) after an incubation of 18-20 h at 37°C. Antibacterial activities are expressed as the MIC, the concentration at which no growth is observed after 18-20 h of incubation. Microorganisms were cultured on Tryptycase Soy Broth (Pronadisa, Barcelona) and incubated at 37°C until growth. Then a loopfull was streaked on Trypticase Soy Agar (Pronadisa, Barcelona) and incubated at 37°C until colony formation occurs. Microorganisms were preserved on cryobilles (EAS laboratoire, France) at -20°C.
(§4) For resistant and multi-drug resistant bacteria Gram negative bacteria, the test was essentially the same with slight changes in the amounts used: samples of a final volume of 100µL were prepared as follows: aliquots (50 µL) of a suspension containing bacteria at a concentration of 1.5x10^6 colony-forming units/mL in culture medium (MH, Muller Hinton Broth, Difco, USA), adjusted at pH 7.4, were added to […] of solution containing the peptide prepared from a stock solution of 1024 mg/L peptide in water in serial 2-fold dilutions in MH broth adjusted to pH 7.4
(§5) Samples of resistant and multi-drug resistant bacteria were from clinical origin and not standardized: • Resistant Gram-negative bacterias used: • Escherichia coli VAL 5 • Escherichia coli VAL 10 • Escherichia coli MAC21a • Escherichia coli NDM-1 • Pseudomonas aeruginosa 36a • Pseudomonas aeruginosa 38a • Pseudomonas aeruginosa 21 R • Pseudomonas aeruginosa 21 S • Pseudomonas aeruginosa 12R • Pseudomonas aeruginosa 12S • Colistin-resistant A. baumannii CR49 • Colistin-resistant A. baumannii Ab99
(§6) P. aeruginosa strains are highly-resistant: For instance, 38a and 36a are resistant to Ceftazidime, Ciprofloxacin, Imipenem, Piperacillin-tazobactam; 21S is resistant to Ceftazidime, Ciprofloxacin, Imipenem, Piperacillin-tazobactam and tobramycin; 21 R is resistant to Ciprofloxacin, tobramycin and colistin; 12S is resistant to cefotoxin, piperacillin/tazobactam, aztreonam, gentamicin and amikacin; and 12R is resistant to ceftazidime, cefotoxin,cefepime, piperacillin/tazobactam, aztreonam,imipenem, gentamicin, amikacin and colistin.

[9] = system: Pseudomonas aeruginosa 21 S; conditions: P. aeruginosa 21S
Protocol: as §3, §4, §5, §6

[10] = system: Pseudomonas aeruginosa 12R; assay type: cell-based; conditions: P. aeruginosa 12R
Protocol: as §7
(§8) Samples of resistant and multi-drug resistant bacteria were from clinical origin and not standardized: • Resistant Gram-negative bacterias used: • Escherichia coli VAL 5 • Escherichia coli VAL 10 • Escherichia coli MAC21a • Escherichia coli NDM-1 • Pseudomonas aeruginosa 36a • Pseudomonas aeruginosa 38a • Pseudomonas aeruginosa 21 R • Pseudomonas aeruginosa 21 S • Pseudomonas aeruginosa 12R • Pseudomonas aeruginosa 12S • Colistin-resistant A. baumannii CR49 • Colistin-resistant A. baumannii Ab99 […]

[11] = system: Pseudomonas aeruginosa 12S; assay type: cell-based; conditions: P. aeruginosa 12S
Protocol: as §7, §8

[12] = system: Colistin-resistant A. baumannii CR49; assay type: cell-based
Protocol: as §7

[13] = system: Colistin-resistant A. baumannii Ab99; assay type: cell-based
Protocol: as §7

[14] = system: Staphylococcus aureus ATTC6538; assay type: cell-based
Description: as §2

Compound	MIC (Escherichia coli MAC21a)	MIC (Escherichia coli NDM-1)	MIC (Escherichia coli VAL 10)	MIC (Escherichia coli VAL 5)	MIC [4]	MIC ([5]; ATCC 9027)	MIC ([6]; 36a)	MIC ([7]; 38a)	MIC [8]	MIC [9]	MIC [10]	MIC [11]	MIC [12]	MIC [13]	MIC [14]	also measured
Nonanoyl-[Dab]T[Dab]C[Dab][dF]L[Dab][Dab]C (cysteine pairing not given here) [Comparative Example 8a]																MIC [1]: 4 µg/mL; MIC [2]: 8 µg/mL; MIC [3]: >32 µg/mL
CCCCCC[C@@H](N)C(=O)N[C@H](C(=O)N[C@@H](CCN)C(=O)N[C@H]1CSSC[C@H](C(N)=O)NC(=O)[C@H](CCN)NC(=O)[C@H](CCN)NC(=O)C(CC(C)C)OC(=O)[C@@H](CCCCCC)NC(=O)[C@H](CCN)NC1=O)[C@@H](C)O (stereo partly drawn) [Example 3, DAoc-Thr-Dab-cyclo(S-S)[Cys-Dab-DAoc-OLe-Dab-Dab-DCys]] (H-[dAoc(2)]T[Dab]C[Dab][dAoc(2)][ξLac(3-iPr)][Dab][Dab][dC]-NH2; disulfide 4-10)	8 µg/mL (≈ 7.15 µM)	2 µg/mL (≈ 1.79 µM)	16 µg/mL (≈ 14.3 µM)	2 µg/mL (≈ 1.79 µM)	2 µg/mL (≈ 1.79 µM)	0.25 µg/mL (≈ 0.223 µM)	0.5 µg/mL (≈ 0.447 µM)	4 µg/mL (≈ 3.57 µM)	0.125 µg/mL (≈ 0.112 µM)	0.25 µg/mL (≈ 0.223 µM)	0.25 µg/mL (≈ 0.223 µM)	0.5 µg/mL (≈ 0.447 µM)	8 µg/mL (≈ 7.15 µM)	8 µg/mL (≈ 7.15 µM)		
CCCCCCC(=O)N[C@@H](Cc1c[nH]cn1)C(=O)N[C@H](C(=O)N[C@@H](CCN)C(=O)N[C@H]1CSSC[C@H](C(N)=O)NC(=O)[C@H](Cc2c[nH]cn2)NC(=O)[C@H](CCN)NC(=O)[C@H](CCCC)NC(=O)[C@@H](CCCCCC)NC(=O)[C@H](CCN)NC1=O)[C@@H](C)O [Example 6] (Heptanoyl-HT[Dab]C[Dab][dAoc(2)][Nle][Dab]H[dC]-NH2; disulfide 4-10)	8 µg/mL (≈ 6.33 µM)	8 µg/mL (≈ 6.33 µM)	16 µg/mL (≈ 12.7 µM)	8 µg/mL (≈ 6.33 µM)	4 µg/mL (≈ 3.17 µM)	1 µg/mL (≈ 0.791 µM)	1 µg/mL (≈ 0.791 µM)	32 µg/mL (≈ 25.3 µM)					4 µg/mL (≈ 3.17 µM)	32 µg/mL (≈ 25.3 µM)	16 µg/mL (≈ 12.7 µM)	
CCCCCCC(=O)N[C@@H](CCN)C(=O)N[C@H](C(=O)N[C@@H](CCN)C(=O)N[C@H]1CSSC[C@H](C(N)=O)NC(=O)[C@H](CCN)NC(=O)[C@H](CCN)NC(=O)[C@H](CCCC)NC(=O)[C@@H](CCCCCC)NC(=O)[C@H](CCN)NC1=O)[C@@H](C)O [Example 1, heptanoyl-Dab-Thr-Dab-cyclo(S-S)[Cys-Dab-DAoc-Nle-Dab-Dab-DCys]] (Heptanoyl-[Dab]T[Dab]C[Dab][dAoc(2)][Nle][Dab][Dab][dC]-NH2; disulfide 4-10)	<0.5 µg/mL	≤ 0.5 µg/mL	1 µg/mL (≈ 0.841 µM)	1 µg/mL (≈ 0.841 µM)	0.5 to 1 µg/mL	0.5 µg/mL (≈ 0.42 µM)	0.06 µg/mL (≈ 0.0504 µM)	0.03 µg/mL (≈ 0.0252 µM)	0.25 µg/mL (≈ 0.21 µM)	0.03 µg/mL (≈ 0.0252 µM)	1 µg/mL (≈ 0.841 µM)	0.5 µg/mL (≈ 0.42 µM)			16 µg/mL (≈ 13.5 µM)	
CCCCCCCC(=O)N[C@@H](CCN)C(=O)N[C@H](C(=O)N[C@@H](CCN)C(=O)N[C@H]1CSSC[C@H](C(N)=O)NC(=O)[C@H](CCN)NC(=O)[C@H](CCN)NC(=O)C(CC(C)C)OC(=O)[C@@H](CCCCCC)NC(=O)[C@H](CCN)NC1=O)[C@@H](C)O (stereo partly drawn) [Example 4, octanoyl-Dab-Thr-Dab-cyclo(S-S)[Cys-Dab-DAoc-OLe-Dab-Dab-DCys]] (Octanoyl-[Dab]T[Dab]C[Dab][dAoc(2)][ξLac(3-iPr)][Dab][Dab][dC]-NH2; disulfide 4-10)	8 µg/mL (≈ 6.64 µM)	1 µg/mL (≈ 0.83 µM)	8 µg/mL (≈ 6.64 µM)	1 µg/mL (≈ 0.83 µM)	1 µg/mL (≈ 0.83 µM)	0.25 µg/mL (≈ 0.208 µM)			2 µg/mL (≈ 1.66 µM)	0.25 µg/mL (≈ 0.208 µM)	0.25 µg/mL (≈ 0.208 µM)	0.125 µg/mL (≈ 0.104 µM)	16 µg/mL (≈ 13.3 µM)	8 µg/mL (≈ 6.64 µM)		MIC ([6]; P. aeruginosa 36a): 0.125 µg/mL (≈ 0.104 µM); MIC ([7]; P. aeruginosa 38a): 0.125 µg/mL (≈ 0.104 µM)
CCCCCCC(=O)N[C@@H](CCN)C(=O)N[C@H](C(=O)N[C@@H](CCN)C(=O)N[C@H]1CSSC[C@H](C(N)=O)NC(=O)[C@H](CCN)NC(=O)[C@H](CCN)NC(=O)C(CC(C)C)OC(=O)[C@@H](CCCCCC)NC(=O)[C@H](CCN)NC1=O)[C@@H](C)O (stereo partly drawn) [Example 2, heptanoyl-Dab-Thr-Dab-cyclo(S-S)[Cys-Dab-DAoc-OLe-Dab-Dab-DCyc]] (Heptanoyl-[Dab]T[Dab]C[Dab][dAoc(2)][ξLac(3-iPr)][Dab][Dab][dC]-NH2; disulfide 4-10)	8 µg/mL (≈ 6.72 µM)	1 µg/mL (≈ 0.84 µM)	32 µg/mL (≈ 26.9 µM)	1 µg/mL (≈ 0.84 µM)	4 µg/mL (≈ 3.36 µM)	1 to 2 µg/mL	1 µg/mL (≈ 0.84 µM)	0.125 µg/mL (≈ 0.105 µM)	2 µg/mL (≈ 1.68 µM)	0.25 µg/mL (≈ 0.21 µM)	0.25 µg/mL (≈ 0.21 µM)	0.25 µg/mL (≈ 0.21 µM)	16 µg/mL (≈ 13.4 µM)	16 µg/mL (≈ 13.4 µM)	64 µg/mL (≈ 53.8 µM)	
CCCCCC[C@H]1NC(=O)[C@H](CCN)NC(=O)[C@@H](NC(=O)[C@H](CCN)NC(=O)[C@@H](NC(=O)[C@H](CCN)NC(=O)CCCCC)[C@@H](C)O)CSSC[C@H](C(N)=O)NC(=O)[C@H](CCN)NC(=O)[C@H](CCN)NC(=O)C(CC(C)C)OC1=O (stereo partly drawn) [Example 5, hexanoyl-Dab-Thr-Dab-cyclo(S-S)[Cys-Dab-DAoc-OLe-Dab-Dab-DCys]] (Hexanoyl-[Dab]T[Dab]C[Dab][dAoc(2)][ξLac(3-iPr)][Dab][Dab][dC]-NH2; disulfide 4-10)					2 to 4 µg/mL	<0.25 µg/mL									32 µg/mL (≈ 27.2 µM)	
CCCCCC[C@H]1NC(=O)[C@H](CCN)NC(=O)[C@@H](NC(=O)[C@H](CCN)NC(=O)[C@@H](NC(=O)[C@H](CCN)NC(=O)CCCCC)[C@@H](C)O)CSSC[C@H](C(N)=O)NC(=O)[C@H](CCN)NC(=O)[C@H](CCN)NC(=O)[C@H](CCCC)NC1=O [Example 7, hexanoyl-Dab-Thr-Dab-cyclo(S-S)[Cys-Dab-DAoc-Nle-Dab-Dab-DCys]] (Hexanoyl-[Dab]T[Dab]C[Dab][dAoc(2)][Nle][Dab][Dab][dC]-NH2; disulfide 4-10)					8 µg/mL (≈ 6.81 µM)										>32 µg/mL	MIC ([5]; P. aeruginosa ATTC9027 (non-resistant)): 1-2* µg/ml
Decanoyl-[Dab]T[Dab]C[Dab][dF]L[Dab][Dab][dC] (cysteine pairing not given here) [Comparative Example 8b]																MIC [1]: 2 µg/mL; MIC [2]: 4 µg/mL; MIC [3]: 8 µg/mL

Source: patent EP3173421A1, “PEPTIDIC COMPOUNDS USEFUL AS ANTIBACTERIAL AGENTS” (Universitat de Barcelona, priority 2015, dated 2017)
